Test results reported in paper PMC12582325 (Proceedings of the National Academy of Sciences of the …, 2025).
pEC50: −log10 of the molar value. Values joined by “and” are separate entries in the source; they are usually repeats but may differ in a detail not shown here. Equal entries are not always repeated. Where two headings read alike, the source gives them in different places. Where a SMILES comes first, the peptide text is derived from it.

What was measured:
[1] = tested on: Mo Ste2 GPCR; format: cell-based, Magnaporthe oryzae
[2] = tested on: empty (strain lacking a GPCR); format: cell-based, Saccharomyces cerevisiae
[3] = tested on: Ca.Ste2; format: cell-based, Candida albicans
[4] = tested on: Fg.Ste2; format: cell-based, Fusarium graminearum
[5] = tested on: Hj Ste2 GPCR (Hj.Hpr2); format: cell-based, Hypocrea jecorina
[6] = tested on: Bb.Ste2; format: cell-based, Beauveria bassiana
[7] = tested on: Fo.Ste2; format: cell-based, Fusarium oxysporum
[8] = tested on: Bc.Ste2; format: cell-based, Botrytis cinerea
[9] = biological target: T1, Sc Ste2 (Saccharomyces cerevisiae, UniProt D6VTK4); format: cell-based
T1 construct: The native Sc system and an empty construct were added as positive and negative controls; endogenous in cells; host or cells: Saccharomyces cerevisiae wild-type control strains GEN18 (MATa) and GEN27 (MATα)
T1 sequence (D6VTK4 1-431): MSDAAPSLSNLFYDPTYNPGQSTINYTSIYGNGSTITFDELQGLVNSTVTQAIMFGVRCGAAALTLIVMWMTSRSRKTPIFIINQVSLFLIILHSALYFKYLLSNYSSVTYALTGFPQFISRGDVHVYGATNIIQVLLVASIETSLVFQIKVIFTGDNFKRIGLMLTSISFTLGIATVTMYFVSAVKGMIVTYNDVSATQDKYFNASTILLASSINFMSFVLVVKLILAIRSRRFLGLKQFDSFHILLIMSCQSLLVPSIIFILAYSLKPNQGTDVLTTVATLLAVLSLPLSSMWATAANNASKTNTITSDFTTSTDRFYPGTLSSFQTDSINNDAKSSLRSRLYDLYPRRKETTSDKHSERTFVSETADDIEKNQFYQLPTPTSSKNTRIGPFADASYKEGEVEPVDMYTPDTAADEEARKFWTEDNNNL

[10] = tested on: Nc Ste2 GPCR; format: cell-based, Neurospora crassa
[11] = tested on: Hj.Hpr2; format: cell-based, Hypocrea jecorina
[12] = tested on: F. oxysporum in tomato roots; assay: Quantification of fungal DNA in tomato roots (qPCR); conditions: 3 d after inoculation, washed roots; compared to the untreated infected roots; three biological replicates
[13] = tested on: F. oxysporum microconidia; assay: Germination of F. oxysporum microconidia; format: cell-based, Fusarium oxysporum f. sp. lycopersici 4287; parameters: Germination of F. oxysporum microconidia (data of Sup.Fig.10): unit not given here; conditions: for Germination of F. oxysporum microconidia (data of Sup.Fig.10): 400 μM pheromone, 13 h, at least 300 spores counted; for Mean Diff, Solvent vs. peptide / Mean 2 (peptide), germination: Sup.Fig.10; for Mean Diff, Solvent vs. peptide: Dunnett's multiple comparisons test, n = 3; for Mean 2 (peptide), germination: Solvent control mean 43,77, mean of n = 3
Protocol: For F. oxysporum microconidia production, the strain was grown for 3 to 4 d in liquid potato dextrose broth (PDB) at 28 °C and 170 rpm. Germination media ([10]) was used for assessing the spore germination. RE was prepared by removing 2-wk-old tomato plants from vermiculite and washing the roots to remove any adhering substrates ([11]).
Supplementary Figure 10. Germination of F. oxysporum microconidia after 13 h of incubation in Germination Media at a cell density of […] microconidia/mL. The assay was performed with 400 μM of pheromone. All points represent the average of three biological replicates in which at least 300 spores were counted. Statistical significance was determined through one-way analysis of variance (ANOVA) with Dunnett’s multiple comparisons (✱p ≤ 0.05).

[14] = tested on: F. oxysporum on tomato roots; assay: Tomato root inoculation and fluorescence microscopy of infected roots; format: in vivo, Fusarium oxysporum / Solanum lycopersicum; conditions: exogenous addition of pheromone to microconidia; 3 d after inoculation; fluorescence microscopy
[15] = tested on: Bb.Ste2; format: cell-based, Beauveria bassiana; remark: listed apart in the source
[16] = tested on: Fo.Ste2; format: cell-based, Fusarium oxysporum; remark: listed apart in the source
[17] = tested on: no_GPCR (negative control lacking a GPCR); format: cell-based, Saccharomyces cerevisiae
[18] = tested on: Fo.Ste2; format: cell-based, Fusarium oxysporum; remark: listed apart in the source
[19] = tested on: F. oxysporum infection of tomato plants; assay: Tomato plant mortality assay; format: in vivo, Fusarium oxysporum / Solanum lycopersicum; conditions: groups of 10 plants; 3.2 × 10^6 microconidia/mL supplemented with pheromone once at inoculation; 50 d; Kaplan-Meier, log-rank
Protocol: Tomato plant infection assays were performed as described ([61]) with F. oxysporum microconidia and treatment inoculation as described above. Plants were transferred to a growth and plant survival was recorded daily for 50 d. Plant death was diagnosed as a complete collapse of the stem, without any green parts left. The Kaplan–Meier test was used to assess statistical significance of differences in survival among groups using the log-rank test in GraphPad Prism. The infection experiment was conducted two times with 10 plants per condition.

[20] = tested on: Fg.Ste2
[21] = tested on: F. oxysporum germ tubes; conditions: gradient of 400 μM pheromone against the solvent (50% methanol); 13 h; water-agar; three biological replicates; Fig. 5A
Protocol: For the B. bassiana and F. oxysporum chemotropism assay and plant infection assays the pheromones were dissolved in 50% (v/v) MeOH to reach a concentration of 4,000 μM.
Fungal chemotropism was conducted as previously described ([11]). For each compound or combination of compounds tested, 300 hyphal tips were scored. All experiments were performed in three biological replicates.

[22] = tested on: Bc.Ste2; format: cell-based, Botrytis cinerea; conditions: 0.0005 μM Bc pheromone in combination with 10 μM peptide; four biological replicates; Fig. 2G
[23] = tested on: B. bassiana; format: cell-based, Beauveria bassiana; conditions: 20 hours
[24] = Fig. 1D mating matrix, pheromone secreted by MATa strain, GPCR in MATα strain, deep well plate, 20 h coculture, three technical plating replicates
[25] = Fig. 1D mating matrix, pheromone secreted by MATa strain, MATα strain lacking a GPCR (empty), deep well plate, 20 h coculture
[26] = biological replicate 1 (first line)
[27] = biological replicate 2 (second line)
[28] = biological replicate 3 (third line)
[29] = SC + added peptide, individual replicates (n=3), SC alone: 0, 0, 0

WCYRIGEPCW [Hj, alpha pheromone of Hypocrea jecorina (Trichoderma reseei)]
Diploid frequency (%) [1]: 0.1%
Diploid frequency (%) [2]: 0.1%
Diploid frequency (%) [3]: 0.1%
Diploid frequency (%) [4]: 0.0%
Diploid frequency (%) [5]: 0.1%
diploid frequency (%), Plates, Hj [5]: 0.67% and 0.16% and 0.05% and 1.62% and 0.03% and 1.07% and 0.1% and 0.01%
Diploid frequency (%) [6]: 4.9%
Diploid frequency (%) [7]: 0.0%
Diploid frequency (%) [8]: 0.1%
Diploid frequency (%) [9]: 0.0%
Diploid frequency (%) [10]: 0.1%
Sup.Fig.7B - Hj, group mean ([11]; pH=6): 0.1033
Sup.Fig.7B - Hj, group mean ([11]; pH=7): 0.03
qPCR, Hj + Hj ([11]; ph=7): 0.0033

QWCRIHGQSCW [Nc, alpha pheromone of Neurospora crassa]
Diploid frequency (%) [1, 24]: 0.0%
Diploid frequency (%) [2, 25]: 0.1%
Diploid frequency (%) [3]: 0.0%
Diploid frequency (%) [4, 24]: 0.0%
Diploid frequency (%) [5]: 0.0%
Diploid frequency (%) [6, 24]: 0.0%
Diploid frequency (%) [7]: 0.0%
Diploid frequency (%) [8]: 0.1%
Diploid frequency (%) [9]: 0.0%
Diploid frequency (%) [10]: 2.8%

WHWLQLKPGQPMY [Sc, alpha pheromone of Saccharomyces cerevisiae]
Diploid frequency (%) [1, 24]: 0.2%
Diploid frequency (%) [2, 25]: 0.2%
Diploid frequency (%) [3]: 0.0%
Diploid frequency (%) [4, 24]: 0.0%
Diploid frequency (%) [5]: 0.0%
Diploid frequency (%) [6, 24]: 0.0%
Diploid frequency (%) [7]: 0.0%
Diploid frequency (%) [8]: 0.1%
Diploid frequency (%) [9]: 90.9%
Diploid frequency (%) [10]: 0.0%

CC(C)C[C@H](NC(=O)[C@H](CS)NC(=O)[C@@H](N)Cc1c[nH]c2ccccc12)C(=O)N[C@@H](Cc1c[nH]c2ccccc12)C(=O)N[C@@H](C)C(=O)NCC(=O)N[C@@H](CCC(N)=O)C(=O)N1CCC[C@H]1C(=O)N[C@@H](CS)C(=O)N[C@@H](Cc1c[nH]c2ccccc12)C(=O)O [A4] (H-WCLWAGQPCW-OH; N-terminus assumed)
Fungal biomass in inoculated tomato roots (qPCR of Fol4287 actin gene, 2^−ΔΔCt, normalized to tomato gapdh) [12]: significant reduction in fungal biomass
Germination of F. oxysporum microconidia (data of Sup.Fig.10) [13, 26]: 15
Germination of F. oxysporum microconidia (data of Sup.Fig.10) [13, 27]: 33,88
Germination of F. oxysporum microconidia (data of Sup.Fig.10) [13, 28]: 6,9
Mean Diff, Solvent vs. peptide [13]: 25,18
Mean 2 (peptide), germination [13]: 18,59
Effect on F. oxysporum microconidia germination, in words ([13]; exogenous addition of 400 μM peptide, 13 h in Germination Media, 3.2 x 106 microconidia/mL): significant reduction
Adhesion of F. oxysporum germ tubes among themselves or to tomato roots [14]: increased adhesion
Fold increase in formation of diploids containing Bb.Ste2 [15]: 8.7 fold
Mean 2 (SC + peptide), Bb share of diploids [15]: 0.4075
Mean Diff, SC vs. + peptide ([15]; n = 3): -0.3609
Activation of Fo.Ste2 biosensor, in words [16]: agonists for Fo.Ste2
logEC50 [16]: -9.288
pEC50 ([16]; read-out: half-maximal effective concentration (EC50)): 9.29
barcode qPCR of diploids, no_GPCR x Fg.Pheromone [17, 29]: 0.035 and 0.012 and 0
barcode qPCR of diploids, no_GPCR x Hj.Pheromone [17, 29]: 0.002 and 0 (2×)
barcode qPCR of diploids, no_GPCR x Bb.Pheromone ([17]; SC + added peptide, individual replicates (n=3), SC alone: 0, 0, 0.004): 0.013 and 0.091 and 0
barcode qPCR of diploids, no_GPCR x Fo.Pheromone ([17]; SC + added peptide, individual replicates (n=3), SC alone: 0, 0, 0.007): 0.014 and 0.039 and 0.054
barcode qPCR of diploids, no_GPCR x no_Pheromone ([17]; SC + added peptide, individual replicates (n=3), SC alone: 0.001, 0.001, 0): 0.04 and 0 and 0.015
Fold increase in diploids of the negative control lacking a GPCR ([17]; consortium in SC media, 10 μM external peptide, P = 0.013): 19 fold
Fold decline in diploids containing Fo.Ste2 [18]: 0.2 fold
Mean 2 (SC + peptide), Fo share of diploids [18]: 0.1003
Mean Diff, SC vs. + peptide ([18]; n = 3): 0.3913
Tomato plant survival [19]: no significant difference in plant survival
barcode qPCR of diploids, Fg.Ste2 x Hj.Pheromone ([20]; SC + added peptide, individual replicates (n=3), SC alone: 0.003, 0.004, 0.001): 0
barcode qPCR of diploids, Fg.Ste2 x Fo.Pheromone ([20]; SC + added peptide, individual replicates (n=3), SC alone: 0.005, 0.005, 0.013): 0.012 and 0.1 and 0.242
barcode qPCR of diploids, Fg.Ste2 x no_Pheromone ([20]; SC + added peptide, individual replicates (n=3), SC alone: 0.012, 0.001, 0.003): 0.015 and 0.01 and 0.037
barcode qPCR of diploids, Fg.Ste2 x Bb.Pheromone ([20]; SC + added peptide, individual replicates (n=3), SC alone: 0.012, 0.009, 0.006): 0.004 and 0 (2×)
barcode qPCR of diploids, Fg.Ste2 x Fg.Pheromone ([20]; SC + added peptide, individual replicates (n=3), SC alone: 0.206, 0.237, 0.235): 0.014 and 0.192 and 0
Fold reduction of Fg.Ste2 and Fg.Pheromone interaction ([20]; consortium in SC media, 10 μM external peptide): 0.3 fold
Fold increase in diploids containing Fg.Ste2 ([20]; consortium in SC media, 10 μM external peptide, three biological replicates): without increasing
Chemotropic response in F. oxysporum germ tubes [21]: significant chemotropic response
Fold increase in formation of diploids containing Hj.Hpr2 [11]: 12.1 fold
Mean 2 (SC + peptide), Hj share of diploids [11]: 0.02456
barcode qPCR of diploids, Hj.HPR2 x Bb.Pheromone [11]: 0
barcode qPCR of diploids, Hj.HPR2 x no_Pheromone [11]: 0
Mean Diff, SC vs. + peptide ([11]; n = 3): -0.02252

WRWPCCWGQT [Scrambled, Scrambled version of F. oxysporum pheromone, negative control]
Germination of F. oxysporum microconidia (data of Sup.Fig.10) [13, 26]: 53,95
Germination of F. oxysporum microconidia (data of Sup.Fig.10) [13, 27]: 33,33
Germination of F. oxysporum microconidia (data of Sup.Fig.10) [13, 28]: 27,4
Mean Diff, Solvent vs. peptide [13]: 5,543
Mean 2 (peptide), germination [13]: 38,23
Effect on activation of Bc.Ste2 by Bc pheromone, in words [22]: do not differ significantly from Bc alone
Chemotropic response in F. oxysporum germ tubes [21]: did not
Chemotropic response in Bb germ tubes [23]: did not
